Laboratory results as given in article PMC12311110 (Nature Communications, 2025).
Like-named read-outs stand apart in the source and are kept apart here. No end group written: not given here.

Key:
[1] = tested on: HeLa lines expressing the BioID1 chimeric versions; assay: GLUT1 and α5β1-integrin trafficking (lysosomal missorting/colocalization with LAMP1) after biotin incubation; format: cell-based, human; conditions: 24 h incubation with 50 µM biotin; HeLa lines expressing the BioID1 chimeras; confocal imaging
Protocol: To explore the robustness of the proximity labelling, we performed an initial biased identification of the biotinylated proteins using western analysis of target proteins. Although 12 h incubation with biotin was enough to label some interactors, we chose to perform all experiments using 24 h incubation to maximise the detection of weak and low abundance proximity proteins, and the potential to identify cargo proteins transiting through the sub-domains (Supplementary Fig. 2H). Importantly, we tested whether the actual biotin-labelling process had any detectable effect on Retromer and Retriever-dependent cargo sorting.
HeLa cells were seeded onto 13 mm coverslips. […]
Confocal microscope images were taken on a Leica SP5-II confocal laser scanning microscope attached to a Leica DMI 6000 inverted epifluorescence microscope or a Leica SP8 confocal laser scanning microscope attached to a Leica DM l8 inverted epifluorescence microscope (Leica Microsystems), with a 63x UV oil immersion lens, numerical aperture 1.4 (Leica Microsystems, 506192). […] The system operated in simultaneous twin-cam mode, and the desired fluorescence was selected through the use of either a 525/50 nm or 617/73 nm bandpass filter for the green or red channel, respectively. […]

hRetromer = biological target: T1, hRetromer (Homo sapiens, UniProt O75436+Q96QK1+Q9UBQ0); assay: Isothermal titration calorimetry (ITC) of binding to Retromer; conditions: 25 °C; for -TΔS / ΔG / ΔH / Kd: ITC, mean of triplicate titrations
T1 construct: GST (pGEX4T-2, thrombin site plus linker) (N, cleaved yes); made in house; host or cells: E. coli BL21 (DE3)
Protocol: All the bacteria constructs were expressed in BL21 (DE3) cells using the autoinduction method. In brief, cultures grown in complex medium were incubated at 37 °C for 4 h, followed by overnight growth at 20 °C before harvesting for purification. […] In all cases, the soluble fractions clarified by centrifugation were loaded onto pre-equilibrated glutathione sepharose (GE healthcare) for initial purification. For Retromer, an additional Talon® resin purification step was performed to ensure the correct stoichiometry. GST-tag removal was carried out co-column overnight by adding thrombin for Human Retromer and PreScission protease for TBC1D13. The GST-tag removed fraction was further purified by size-exclusion chromatography (SEC) using a Superdex 200 (16/600) column (GE Healthcare) equilibrated with buffer containing 50 mM Tris-HCl pH 7.5, 200 mM NaCl, 2 mM β-ME.
The effect of cyclic peptide was assessed by pre-mixing 140 µM RT-D1 into 14 µM Retromer before titrating with 1 mM of native DENND4C1189-1206 peptide. For the binding experiment between Retromer and TBC1D13, 530 µM of TBC1D13 was titrated into 14 µM Retromer. The effect of the cyclic peptide was tested using the same concentration of RT-D1 as described above. All ITC experiments consisted of an initial 0.4 μl (not used in data processing), followed by 12 serial injections of 3.22 μl each with 180 sec intervals. The resulting titration data were integrated with the Malvern software package by fitting and normalised data to a single-site binding model. This yielded the thermodynamic parameters for all binding experiments, including the dissociation constant (Kd), enthalpy (∆H), Gibbs free energy (∆G) and -T∆S. The stoichiometry (N) was refined initially, and if the value was close to 1, then it was set to exactly 1.0 for calculation. The data presented are the mean of triplicate titrations for each experiment.

[2] = tested on: colocalization with VPS35 or SNX1 in HeLa cells; assay: Immunofluorescence colocalization analysis (Manders/Pearson coefficients); format: cell-based, human; conditions: mean of the 3 experiment averages (n = 3)
Protocol: HeLa cells were seeded onto 13 mm coverslips. Cells were fixed in 4% (v/v) paraformaldehyde (PFA) (Pierce, 28906) in PBS for 20 min and permeabilised in 0.1% (v/v) Triton X-100 in PBS (Sigma-Aldrich), or in 0.1% (w/v) saponin (sigma-Aldrich) in PBS when labelling LAMP1 compartments, for 5 min followed by blocking with 2% (w/v) BSA (Sigma, 05482) in PBS for 30 min. Coverslips were stained with primary antibodies for 1 hr followed by secondary antibodies for 30 min, then mounted onto glass microscope slides with Fluoromount-G (Invitrogen, 00-4958-02).
Confocal microscope images were taken on a Leica SP5-II confocal laser scanning microscope attached to a Leica DMI 6000 inverted epifluorescence microscope or a Leica SP8 confocal laser scanning microscope attached to a Leica DM l8 inverted epifluorescence microscope (Leica Microsystems), with a 63x UV oil immersion lens, numerical aperture 1.4 (Leica Microsystems, 506192). For the Leica SP8 microscope, ‘lightning’ adaptive image restoration was used to generate deconvolved representative images. Colocalization analysis was performed using Volocity 6.3 software (PerkinElmer) or JACOP plugin from ImageJ-FIJI software. Spinning disk high-resolution images were acquired on an IXplore SpinSR system (Olympus) consisting of an IX83 microscope frame with a CO2 and temperature chamber (Olympus), SoRa W1 twin cam spinning disk unit (Yokogawa) and two back-thinned Fusion BT sCMOS cameras (Hamamatsu). A 488 nm or 561 nm laser provided excitation for the green and red channels, respectively. The SoRa disk with an additional 3.2x magnification changer was used for imaging with excitation light focused to the sample using a 60x/1.4NA oil immersion lens. The system operated in simultaneous twin-cam mode, and the desired fluorescence was selected through the use of either a 525/50 nm or 617/73 nm bandpass filter for the green or red channel, respectively.

[3] = 1 mM DENND4C1189-1206 peptide (native or L1204A) titrated into 14 µM Retromer
[4] = 140 µM RT-D1 pre-mixed into 14 µM Retromer, then titrated with 1 mM native DENND4C1189-1206 peptide

Compound: O=C(O)CCCC[C@@H]1SC[C@@H]2NC(=O)N[C@@H]21 [biotin]
- Effect of biotin labelling on trafficking of GLUT1 or α5β1-integrin [1]: did not detect significant changes

Compound: AKVVQREDVETGLDPASL [hDENND4C1189-1206 L1204A]
- -TΔS (hRetromer; [3]): No binding detected
- ΔG (hRetromer; [3]): No binding detected
- ΔH (hRetromer; [3]): No binding detected
- Kd (hRetromer; Microcal PEAQ-ITC, 1 mM DENND4C1189-1206 peptide (native or L1204A) titrated into 14 µM Retromer, single-site binding model): No binding detected

Compound: AKVVQREDVETGLDPLSL [hDENND4C1189-1206]
- Kd (hRetromer; Microcal PEAQ-ITC, 1 mM DENND4C1189-1206 peptide (native or L1204A) titrated into 14 µM Retromer, single-site binding model, read-out: Kd): 15.4 ± 0.85 µM

Compound: Ac-yIIDTPLGVFLSSLKRC-NH2 [RT-D1, reference compound]
- Effect of competing RT-D1 on binding of the DENND4C PL-containing peptide (hRetromer; ITC competition, 140 µM RT-D1 pre-mixed into 14 µM Retromer, 1 mM DENND4C1189-1206 peptide titrated): blocked

Compound: GFP-DENND4C L1201A
- GFP-DENND4C dots/section [2]: 11.1
- M1 GFP-DENND4C/VPS35 (Manders coefficient) [2]: 0.06333
- M2 GFP-DENND4C/VPS35 (Manders coefficient) [2]: 0.06433

Compound: GFP-DENND4C WT
- GFP-DENND4C dots/section [2]: 55.5
- M1 GFP-DENND4C/VPS35 (Manders coefficient) [2]: 0.4133
- M2 GFP-DENND4C/VPS35 (Manders coefficient) [2]: 0.28

Compound: hDENND4C1189-1206 + RT-D1: native DENND4C1189-1206 peptide titrated into Retromer pre-mixed with 140 µM RT-D1 (AKVVQREDVETGLDPLSL; premixed with Retromer and RT-D1; UniProt Q5VZ89 1189-1206, looked up, fragment)
- -TΔS (hRetromer; [4]): No binding detected
- Kd (hRetromer; [4]): No binding detected
- ΔG (hRetromer; [4]): No binding detected
- ΔH (hRetromer; [4]): No binding detected
